Experimental findings from PubChem BioAssay AID608 (Sanford-Burnham Center for Chemical Genomics, 2007) are described below.

Structures are written as SMILES. Several values for one entry are separate records, joined by “and”; a condition that tells them apart may be missing. Equal entries are not always repeated. Activity calls are given as the source filed them. No rule for the calls is given here. Some results are limits rather than exact numbers.

The target of the assay is Peptidyl-prolyl cis-trans isomerase FKBP1A (Homo sapiens) (UniProt P62942). Put plainly: FKBP12 binders, biophysical, NMR detection (AID 608). As to conditions: NMR binding, purified FKBP12.
Chain of Peptidyl-prolyl cis-trans isomerase FKBP1A (Homo sapiens) (P62942 whole entry, looked up): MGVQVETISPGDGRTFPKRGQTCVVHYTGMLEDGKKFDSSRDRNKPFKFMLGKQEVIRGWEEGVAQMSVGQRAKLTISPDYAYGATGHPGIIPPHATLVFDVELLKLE
As for `Nc1ccccc1N=C1CNC(=O)C1`, the Kd was > 4 mM (inactive).

Take `c1coc(CNc2ncnc3nc[nH]c23)c1`: the Kd was > 4 mM (inactive).

In the case of `Nc1cc(=O)[nH]c(SCC(=O)NCc2ccccc2)n1`, the Kd is > 4 mM (inactive).

For `NS(=O)(=O)c1ccc(N2CCCC2=O)cc1`, the Kd is > 4 mM (inactive).

Consider `COC1(C)CCC2OC2(C)CCC2C1CC2(C)C` (stereo not given), for which the Kd is > 4 mM (inactive).

In the case of `COc1ccc(NC(=O)C2CC(=O)N=C(N)S2)cc1` (stereo not given), the Kd was > 4 mM (inactive).

In the case of `Nc1nc(SCC(=O)c2ccc([N+](=O)[O-])cc2)n[nH]1`, the Kd is > 4 mM (inactive).

Take `CCN1CCC(NC2CCC(O)CC2)CC1` (stereo not given): the Kd was > 4 mM (inactive).

Turning to `CCc1cc2c(SCC(=O)O)ncnc2s1`, the Kd is > 4 mM (inactive).

With `COc1ccc(-c2coc3cc(OC(C)=O)cc(OC(C)=O)c3c2=O)cc1`, the Kd was > 4 mM (inactive).

For `CN1CCN(c2ccc(CN)cc2)CC1`, the Kd is > 4 mM (inactive).

Consider `Cc1ccc(C(=O)Nc2ccncc2)o1`, for which the Kd is > 4 mM (inactive).

On to `O=C1CN(C(=O)c2ccccc2)c2ccccc2N1`, for which the Kd is > 4 mM (inactive).

As for `Cc1ccc(OCC(=O)N2CC(C)OC(C)C2)cc1C` (stereo not given), the Kd is > 4 mM (inactive).

On to `COc1cccc(/C=C/C(=O)O)c1C(C)C`, for which the Kd was > 4 mM (inactive).

For `Nc1c(N2CCCC2)cnn(-c2ccccc2)c1=O`, the Kd is > 4 mM (inactive).

As to `O=C1C2C3C=CC(O3)C2C(=O)N1c1ccccc1` (stereo not given), the Kd is > 4 mM (inactive).

With `CNC(=O)n1ccc(C(=O)N2CCCCC2)n1`, the Kd is > 4 mM (inactive).

Regarding `O=c1c2ccccc2oc2ccccc12`, the Kd is > 4 mM (inactive).

Consider `COC(=O)C1=CO[C@@H](O[C@@H]2O[C@H](CO)[C@@H](O)[C@H](O)[C@H]2O)[C@@H]2[C@@H](C)[C@@H](O)C[C@H]12`, for which the Kd is > 4 mM (inactive).

As to `O=C(Nc1ccon1)c1ccc(Cl)s1`, the Kd was > 4 mM (inactive).

For the compound `CC(=O)O[C@H]1CCC2(C)C3=C(CCC2C1(C)C)[C@@]1(C)CC[C@@H](C(C)CCC=C(C)C)[C@]1(C)CC3` (stereo not given in full), the Kd was > 4 mM (inactive).

As for `O=CN1CCN(C(=O)c2ccco2)CC1`, the Kd was > 4 mM (inactive).

For the compound `CN(C)CCCN1CNC(=S)NC1`, the Kd is > 4 mM (inactive).

Take `CN1CCN(C(=S)NC(=O)c2ccn(C)n2)CC1`: the Kd was > 4 mM (inactive).

For `CNC(=O)c1cccc(NC(=S)NC)c1`, the Kd is > 4 mM (inactive).

Turning to `Cc1cc(C(=O)NC(C)c2ccncc2)no1` (stereo not given), the Kd is > 4 mM (inactive).

Take `Cc1nc(-c2ccccc2)ncc1CO`: the Kd is > 4 mM (inactive).

Take `COc1ncccc1N`: the Kd is > 4 mM (inactive).

Consider `CN(C)N1C(=O)c2ccccc2C1=O`, for which the Kd was > 4 mM (inactive).

Regarding `COc1cc([C@H]2Oc3cc([C@H]4Oc5cc(O)cc(O)c5C(=O)[C@@H]4O)ccc3O[C@@H]2CO)ccc1O`, the Kd was > 4 mM (inactive).

As for `COc1ccc2cc1Oc1ccc(cc1)C[C@H]1c3c(cc4c(c3Oc3cc5c(cc3OC)CCN(C)[C@@H]5C2)OCO4)CCN1C`, the Kd is > 4 mM (inactive).

For the compound `COc1cc2c(cc1-c1coc3c4c(c(OC)cc3c1=O)OC(C)(C)C=C4)OCO2`, the Kd is > 4 mM (inactive).

For the compound `NC(=O)CN1CCCCCC1=O`, the Kd was > 4 mM (inactive).

For `O=C1CCCc2c(O)cccc21`, the Kd is > 4 mM (inactive).

With `COC(=O)C[C@H]1C(C)(C)C(=O)[C@@H]2CC3=C4CC(=O)O[C@@H](c5ccoc5)[C@]4(C)CCC3C1(C)C2=O` (stereo not given in full), the Kd was > 4 mM (inactive).

Regarding `Cc1cc(C)n(-c2nncn2N)n1`, the Kd is > 4 mM (inactive).

For the compound `CC(C)CCCC(C)[C@H]1CCC2C3CC=C4C[C@@H](O)CC[C@]4(C)C3CC[C@@]21C` (stereo not given in full), the Kd is > 4 mM (inactive).

As for `CCCNC(=O)c1cnc2n(c1=O)CCS2`, the Kd was > 4 mM (inactive).

`COC1=CC(=O)C(O)=C/C1=C\C=C\c1ccccc1`: the Kd is > 4 mM (inactive).

Consider `NC(=O)Cc1nc(-c2ccc(F)cc2)cs1`, for which the Kd is > 4 mM (inactive).

Consider `O=C(O)C(CO)c1ccccc1` (stereo not given), for which the Kd is > 4 mM (inactive).

For the compound `Cn1c(-c2ccccc2F)n[nH]c1=S`, the Kd is > 4 mM (inactive).

For the compound `CCn1c(-c2ccccc2)n[nH]c1=S`, the Kd is > 4 mM (inactive).

On to `CC(=O)NC(=S)Nc1ccc(S(N)(=O)=O)cc1`, for which the Kd was > 4 mM (inactive).

In the case of `O=c1oc2ccccc2cc1O`, the Kd was > 4 mM (inactive).

As for `Nc1ccc(N2CCCCC2)cc1`, the Kd is > 4 mM (inactive).

As for `NCc1ccc(-c2cccs2)s1`, the Kd was > 4 mM (inactive).

`c1ccc2[nH]c(NCCN3CCOCC3)nc2c1`: the Kd was > 4 mM (inactive).

For `c1ccc2c(NC3=NCCS3)cccc2c1`, the Kd was > 4 mM (inactive).

For the compound `Nc1cccc(-n2cccc2)c1`, the Kd is > 4 mM (inactive).

Turning to `CN1CCOc2cc(C(=O)O)ccc21`, the Kd was > 4 mM (inactive).

For `Cc1ccc(C)n1NC(=O)c1ccco1`, the Kd is > 4 mM (inactive).

On to `Cc1ccc(C(=O)Nc2nnc(-c3ccncc3)s2)o1`, for which the Kd is > 4 mM (inactive).

`Cc1cc(C)n2nc(-c3cccnc3)nc2n1`: the Kd was > 4 mM (inactive).

Regarding `Cc1cc(=O)n2[nH]c(COc3ccccc3)nc2n1`, the Kd is > 4 mM (inactive).

Turning to `Cc1ccc(-c2nnc3sc(-c4ccncc4)nn23)cc1`, the Kd was > 4 mM (inactive).

For the compound `CCOC(=O)CNC(=O)CSc1nnc(C)c(=O)[nH]1`, the Kd is > 4 mM (inactive).

As for `CCOc1ccc(NS(=O)(=O)N2CCOCC2)cc1`, the Kd was > 4 mM (inactive).

Regarding `CC[C@]12CCCN3CCc4c(n(c5ccccc45)[C@](O)(C(=O)OC)C1)[C@@H]32`, the Kd is > 4 mM (inactive).

For the compound `Fc1cc2nccnc2cc1N1CCSCC1`, the Kd is > 4 mM (inactive).

`N#CCSc1nc2ccccc2c(=O)n1-c1ccccc1`: the Kd was > 4 mM (inactive).

As for `O=C1CSC(=Nc2cccc(C(=O)O)c2)N1`, the Kd was > 4 mM (inactive).

Regarding `O=C(Nc1ccc2c(c1)OCO2)c1cccs1`, the Kd is > 4 mM (inactive).

Turning to `COc1cc([C@@H]2c3cc4c(cc3[C@H](OC(C)=O)[C@H]3COC(=O)[C@@H]23)OCO4)cc(OC)c1OC`, the Kd was > 4 mM (inactive).

With `COc1ccc(C(C)=O)c(OC)c1`, the Kd is > 4 mM (inactive).

As for `COc1cc(/C=C/C(=O)/C=C(O)/C=C/c2ccc(O)c(OC)c2)ccc1O`, the Kd was > 4 mM (inactive).

On to `Nc1cccnc1N1CCOCC1`, for which the Kd is > 4 mM (inactive).

Consider `CCn1cnc2cc(NCc3ccncc3)ccc21`, for which the Kd is > 4 mM (inactive).

For `OCc1c[nH]c2ccccc12`, the Kd was > 4 mM (inactive).

Take `COC(=O)CCC(C)[C@H]1CCC2C3C(C[C@H](O)[C@@]21C)[C@@]1(C)CC[C@@H](O)C[C@H]1C[C@H]3O` (stereo not given in full): the Kd is > 4 mM (inactive).

As for `COCC(=O)OCn1nnc2ccccc2c1=O`, the Kd was > 4 mM (inactive).

With `CCOC(=O)c1nc2ccccc2c(=O)n1N`, the Kd was > 4 mM (inactive).

As for `CC(=O)c1cc(C)ccc1OC(=O)c1cccnc1`, the Kd was > 4 mM (inactive).

Regarding `C=CCCCCCCCCCCCC(O)CC(O)COC(C)=O` (stereo not given) (tested in a mixture with another compound), the Kd is > 4 mM (inactive).

With `Nc1nc2ccc(C(=O)O)cc2s1`, the Kd was > 4 mM (inactive).

As to `CC1(C)Oc2ccc3ccc(=O)oc3c2CC1O` (stereo not given), the Kd is > 4 mM (inactive).

Take `CC(=O)Nc1ccc(N2CCOCC2)cc1`: the Kd was > 4 mM (inactive).

`NCC1CN(Cc2ccccc2)CCO1` (stereo not given): the Kd was > 4 mM (inactive).

For `CN(C)S(=O)(=O)N1CCc2ccccc21`, the Kd was > 4 mM (inactive).

Turning to `COc1ccc(C2(C)CC(=O)NC2=O)cc1` (stereo not given), the Kd was > 4 mM (inactive).

For the compound `O=C(O)CNC(=O)c1ccc([N+](=O)[O-])cc1`, the Kd was > 4 mM (inactive).

As for `CS(=O)(=O)N1CCN(C(=O)Cc2cccs2)CC1`, the Kd is > 4 mM (inactive).

On to `Oc1ccc(-c2n[nH]c(=S)n2Cc2ccco2)cc1`, for which the Kd is > 4 mM (inactive).

Take `Cc1ccc(OCC(=O)N2CCOCC2)cc1C`: the Kd entry was “inactive”.

Consider `CC(C)=CCc1c2c(c3occ(-c4ccc(O)c(O)c4)c(=O)c3c1O)C=CC(C)(C)O2`, for which the Kd was > 4 mM (inactive).

For `O=c1[nH]cc(N=Cc2ccc(F)cc2)c(=O)[nH]1`, the Kd was > 4 mM (inactive).

As to `C=C1C2CC[C@@]3(C)[C@H](c4ccoc4)OC(=O)C[C@]13O[C@H]1CC(O)C(C)(C)C(CC(=O)OC)[C@@]21C` (stereo not given in full), the Kd is > 4 mM (inactive).

With `CCCc1cc2c(c(NC(C)=O)n1)c(=O)oc1ccccc12`, the Kd was > 4 mM (inactive).

Take `Nc1nc2c3ccccc3nc(Cc3ccccc3)n2n1`: the Kd was > 4 mM (inactive).

Turning to `CC(C)n1nnc2cc(C(=O)O)ccc21`, the Kd was > 4 mM (inactive).

In the case of `COC(=O)c1cccc(N)c1`, the Kd is > 4 mM (inactive).

For the compound `NCc1cccc(-n2cccc2)c1`, the Kd was > 4 mM (inactive).

Regarding `CN(C)c1nc(N2CCOCC2)nc(N2CCOCC2)n1`, the Kd was > 4 mM (inactive).

As for `O=S(=O)(N1CCCCC1)n1nnc2ccccc21`, the Kd was > 4 mM (inactive) and 385 µM.

Take `CC(=O)OC/C=C(\C)CC/C=C(\C)CC/C=C(\C)CC/C=C(\C)CC/C=C(\C)CC/C=C(\C)CC/C=C(\C)CC/C=C(\C)CCC=C(C)C`: the Kd was > 4 mM (inactive).

On to `Cc1nc(NCc2ccco2)nc2c1C(=O)CC(C)C2` (stereo not given), for which the Kd is > 4 mM (inactive).

In the case of `Cc1sc(CCc2nc(-c3ccccc3)c(C)s2)nc1-c1ccccc1`, the Kd result was “inactive”.

Consider `COc1ccccc1NC(=O)c1snnc1C`, for which the Kd is > 4 mM (inactive).

Regarding `COc1ccc([C@@H](C)C(=O)c2ccc(O)cc2O)cc1`, the Kd was > 4 mM (inactive).

By Kd is commonly meant the equilibrium constant for the complex coming apart.
